Reference: PubChem BioAssay (NCI)
Where “and” joins values, the source holds several entries; their conditions need not be identical. Equal entries are not always repeated.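 Five compound concentrations were applied to cells in 96-well plates for 48 hours; endpoints were derived by simple linear interpolation of the resulting dose-response curve. GI50 = concentration required for 50% inhibition of growth. TGI: concentration producing complete growth inhibition.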

Tests used:
Test in all cases: growth of human tumour cells (NCI), 48 h
DMS 114 small cell lung = tested on: DMS 114 small cell lung
HOP-18 NSCLC = tested on: HOP-18 NSCLC
KM20L2 colon = tested on: KM20L2 colon
M19-MEL melanoma = tested on: M19-MEL melanoma
BT-549 breast = tested on: BT-549 breast
DU-145 prostate = tested on: DU-145 prostate
MDA-MB-231 breast = tested on: MDA-MB-231 breast
MDA-N = tested on: MDA-N

`OCCCCCNc1ccnc2cc(Cl)ccc12` showed a TGI (DMS 114 small cell lung) greater than 100 µM, a TGI (HOP-18 NSCLC) greater than 100 µM and a TGI (KM20L2 colon) greater than 100 µM. It also gave a TGI (M19-MEL melanoma) greater than 100 µM.
In the case of `O=C(CC1SC(=Nc2ccccc2Cl)NC1=O)Nc1ccc(Cl)cc1` (centres undefined), the TGI (DMS 114 small cell lung) is reported as greater than 100 µM, the TGI (KM20L2 colon) is reported as greater than 100 µM and the TGI (M19-MEL melanoma) is reported as greater than 100 µM.
With `COc1c(N2CCN(CN3C(=O)C(=O)c4ccccc43)C(C)C2)c(F)cc2c(=O)c(C(=O)O)cn(C3CC3)c12` (centres undefined) the GI50 (BT-549 breast) was greater than 100 µM, the TGI (BT-549 breast) was greater than 100 µM and the GI50 (DU-145 prostate) was 49.9 µM. The TGI (DU-145 prostate) was greater than 100 µM, the GI50 (MDA-MB-231 breast) was 53.5 µM and the TGI (MDA-MB-231 breast) was greater than 100 µM.
In the case of `O=C1c2ccccc2-c2c1c1ccc([N+](=O)[O-])cc1c(=O)n2CCCn1ccnc1`, the GI50 (BT-549 breast) is reported as 0.0359 µM, the TGI (BT-549 breast) is reported as 0.96 µM and the GI50 (DU-145 prostate) is reported as less than 0.0152 µM. The TGI (DU-145 prostate) was 0.0542 µM, the GI50 (MDA-MB-231 breast) was 0.15 µM and the TGI (MDA-MB-231 breast) was 0.408 µM.
`CC(=Nc1ccccc1)C1=C(O)C(Cc2ccc(F)cc2)NC1=O` (centres undefined) gave a GI50 (BT-549 breast) of 0.879 µM, a TGI (BT-549 breast) greater than 100 µM and a GI50 (DU-145 prostate) of 2.12 µM. For the same compound, the TGI (DU-145 prostate) was greater than 100 µM, the GI50 (MDA-MB-231 breast) was 1.7 µM and the TGI (MDA-MB-231 breast) was greater than 100 µM.
For `Cc1nc(-n2nc(-c3ccccc3)cc2-c2ccccc2)sc1C(=O)/C=C/c1ccc(Cl)cc1`, the TGI (DMS 114 small cell lung) was 28.3 µM, the TGI (HOP-18 NSCLC) was 29.6 µM and the TGI (KM20L2 colon) was 77.6 µM. It also gave a TGI (M19-MEL melanoma) of 39.6 µM.
`Cc1ccc2c(c1)-c1oc(=O)c(-c3cc4ccccc4oc3=O)cc1C(O)O2` (centres undefined) was tested, and the GI50 (BT-549 breast) was 12.7 µM, the TGI (BT-549 breast) was 25.5 µM and the GI50 (DU-145 prostate) was 11.6 µM. It also gave a TGI (DU-145 prostate) of 23.8 µM, a GI50 (MDA-MB-231 breast) of 15.2 µM and a TGI (MDA-MB-231 breast) of 43.7 µM.
With `CN=C(N)NC` the TGI (DMS 114 small cell lung) was greater than 100 µM, the TGI (HOP-18 NSCLC) was greater than 100 µM and the TGI (KM20L2 colon) was greater than 100 µM. For the same compound, the TGI (M19-MEL melanoma) was greater than 100 µM.
`CCOC(=O)C(=O)C(/C(=N/N(C)C)C(=O)Nc1ccc(C)cc1C)c1nc2ccccc2[nH]c1=O` (centres undefined) was tested, and the TGI (BT-549 breast) was greater than 100 µM, the TGI (MDA-MB-231 breast) was greater than 100 µM and the TGI (MDA-N) was greater than 100 µM.
In the case of `COc1cc2ccc3c4cc(OC)c(OC(C)C)cc4c[n+](C)c3c2cc1OC`, the TGI (DMS 114 small cell lung) is reported as 41.4 µM, the TGI (HOP-18 NSCLC) is reported as 88.6 µM and the TGI (KM20L2 colon) is reported as greater than 100 µM. For the same compound, the TGI (M19-MEL melanoma) was greater than 100 µM.
In the case of `CCN(CC)c1ccc(/C=N/NC(=O)c2ccccc2Nc2ccnc(C(F)(F)F)c2)c(O)c1`, the GI50 (BT-549 breast) is reported as 0.529 µM, the TGI (BT-549 breast) is reported as greater than 100 µM and the GI50 (DU-145 prostate) is reported as 0.134 µM. The TGI (DU-145 prostate) was greater than 100 µM, the GI50 (MDA-MB-231 breast) was 0.261 µM and the TGI (MDA-MB-231 breast) was greater than 100 µM.
For `C#CCN(Cc1nc2cc(C(F)(F)F)ccc2nc1-c1ccccc1)c1ccc(F)cc1`, the GI50 (BT-549 breast) was 48 µM, the TGI (BT-549 breast) was greater than 100 µM and the GI50 (DU-145 prostate) was 39.4 µM. The TGI (DU-145 prostate) was greater than 100 µM, the GI50 (MDA-MB-231 breast) was 21.6 µM and the TGI (MDA-MB-231 breast) was 56.8 µM.
`CN1CCN(Cc2ccc(NC(=O)c3cccc(C#Cc4c(N)ncc5ccc(F)cc45)c3)cc2C(F)(F)F)CC1` gave a GI50 (BT-549 breast) of 2.11 µM, a TGI (BT-549 breast) of 6.66 µM and a GI50 (DU-145 prostate) of 0.838 µM. For the same compound, the TGI (DU-145 prostate) was 1.59 µM, the GI50 (MDA-MB-231 breast) was 0.545 µM and the TGI (MDA-MB-231 breast) was 1.21 µM.
`C[C@H](C(O)CC(=O)C(C)(C)O)[C@H]1CC[C@@]2(C)[C@@H]3CC[C@H]4C(C)(C)[C@@H](OC5OC(COC6OC(CO)C(O)C(O)C6O)C(O)C(O)C5O)CC[C@]4(C)C3=CC[C@]12C` (some centres undefined) was tested, and the TGI (BT-549 breast) was greater than 100 µM, the TGI (DU-145 prostate) was greater than 100 µM and the TGI (MDA-MB-231 breast) was greater than 100 µM. It also gave a TGI (MDA-N) greater than 100 µM.
Compound `O=C(Nc1ccc(N2CCNCC2)cn1)c1[nH]ncc1Nc1ncnc2sccc12` has a GI50 (BT-549 breast) of 1.83 µM, a TGI (BT-549 breast) of 4.13 µM and a GI50 (DU-145 prostate) of 3.57 µM. The TGI (DU-145 prostate) was 12.2 µM, the GI50 (MDA-MB-231 breast) was 1.68 µM and the TGI (MDA-MB-231 breast) was 3.36 µM.
`C[C@@]1(O)CCC[C@H]1n1c(=O)c(C(F)F)cc2cnc(NC3CCN(S(C)(=O)=O)CC3)nc21` gave a GI50 (BT-549 breast) of 1.94 µM, a TGI (BT-549 breast) of 9.39 µM and a GI50 (DU-145 prostate) of 2.18 µM. It also gave a TGI (DU-145 prostate) of 54.7 µM, a GI50 (MDA-MB-231 breast) of 1.14 µM and a TGI (MDA-MB-231 breast) of 7.04 µM.
With `CN(C)C1C(=O)C(C(N)=O)=C(O)C2(O)C(=O)C3=C(O)c4c(O)cccc4C(C)(O)C3CC12` (centres undefined) the TGI (BT-549 breast) was greater than 100 µM, the TGI (DU-145 prostate) was greater than 100 µM and the GI50 (MDA-MB-231 breast) was 26.2 µM and > 100 µM. The TGI (MDA-MB-231 breast) was greater than 100 µM, the GI50 (MDA-N) was 17.8 µM and > 100 µM and the TGI (MDA-N) was 38.9 µM and > 100 µM.
`Cc1nc2ccccc2c(/C=C/c2ccccc2)c1C(=O)/C=C/c1ccccc1` was tested, and the GI50 (BT-549 breast) was 1.73 µM, the TGI (BT-549 breast) was 3.67 µM and the GI50 (MDA-MB-231 breast) was 2.3 µM. For the same compound, the TGI (MDA-MB-231 breast) was 7.37 µM.
With `CCCCCCCCCCCCC(NC(C)=O)(C(=O)OCC)C(=O)OCC` the GI50 (DU-145 prostate) was 15.1 µM, the TGI (DU-145 prostate) was 28.6 µM and the GI50 (MDA-MB-231 breast) was 12.6 µM. For the same compound, the TGI (MDA-MB-231 breast) was 26.7 µM.
`N#Cc1ccc(NC(=O)Nc2nc3ccc(OC(F)(F)F)cc3s2)cc1` showed a GI50 (BT-549 breast) of 2.78 µM, a TGI (BT-549 breast) of 9.36 µM and a GI50 (DU-145 prostate) of 2.7 µM. For the same compound, the TGI (DU-145 prostate) was 13.6 µM, the GI50 (MDA-MB-231 breast) was 0.935 µM and the TGI (MDA-MB-231 breast) was 3.65 µM.
Work on `COC1C(O)CC(OC2CC(OC3CC(O[C@@H]4C(=O)c5c(cc6cc(OC7CC(OC8CC(O)C(O)C(C)O8)C(O)C(C)O7)c(C)c(O)c6c5O)CC4[C@H](OC)[C@@H](O)C(C)=O)OC(C)C3O)OC(C)C2O)OC1C` (some centres undefined) yielded a GI50 (BT-549 breast) of less than 0.0292 µM, a TGI (BT-549 breast) of 12.5 µM and a GI50 (DU-145 prostate) of 0.0127 µM. It also gave a TGI (DU-145 prostate) greater than 33.3 µM, a GI50 (MDA-MB-231 breast) of 0.051 µM and a TGI (MDA-MB-231 breast) greater than 33.3 µM.
In the case of `Cc1ccccc1C[P+](c1ccccc1)(c1ccccc1)c1ccccc1`, the GI50 (BT-549 breast) is reported as 2.7 µM, the TGI (BT-549 breast) is reported as 71.7 µM and the GI50 (DU-145 prostate) is reported as 2.18 µM. For the same compound, the TGI (DU-145 prostate) was greater than 100 µM, the GI50 (MDA-MB-231 breast) was 2.04 µM and the TGI (MDA-MB-231 breast) was greater than 100 µM.
With `CN1CCN(c2ccc(-c3cccc(CN4CCOCC4)c3)cc2NC(=O)c2c[nH]c(=O)cc2C(F)(F)F)CC1` the GI50 (BT-549 breast) was 23.7 µM, the TGI (BT-549 breast) was greater than 100 µM and the GI50 (DU-145 prostate) was 62.5 µM. For the same compound, the TGI (DU-145 prostate) was greater than 100 µM, the GI50 (MDA-MB-231 breast) was 16.3 µM and the TGI (MDA-MB-231 breast) was 54.6 µM.
`COc1ccccc1N1CCN(CCCOc2ccc(C(=O)/C=C3/C(=O)Nc4ccccc43)cc2)CC1` showed a GI50 (BT-549 breast) of 4.42 µM, a TGI (BT-549 breast) of 16.1 µM and a GI50 (DU-145 prostate) of 15 µM. For the same compound, the TGI (DU-145 prostate) was 38.1 µM, the GI50 (MDA-MB-231 breast) was 9.63 µM and the TGI (MDA-MB-231 breast) was 37.6 µM.
Compound `Cc1ccc(-n2c3c(c4c(CN)c(O)ccc42)CCc2ccccc2C3=O)cc1` has a GI50 (BT-549 breast) of 10.7 µM, a TGI (BT-549 breast) of 31.8 µM and a GI50 (DU-145 prostate) of 17.7 µM. It also gave a TGI (DU-145 prostate) of 41.7 µM, a GI50 (MDA-MB-231 breast) of 14.8 µM and a TGI (MDA-MB-231 breast) of 29.2 µM.
For `CCOc1ncnc2ccc(Cl)c(I)c12`, the TGI (DMS 114 small cell lung) was greater than 100 µM, the TGI (KM20L2 colon) was greater than 100 µM and the TGI (M19-MEL melanoma) was greater than 100 µM.
In the case of `C[C@@H]1OC(=O)NN=C1c1ccc(-c2ccc(F)cc2)c(C(F)(F)F)c1`, the GI50 (BT-549 breast) is reported as 7.3 µM, the TGI (BT-549 breast) is reported as 21.2 µM and the GI50 (DU-145 prostate) is reported as 1.57 µM. The TGI (DU-145 prostate) was 20.7 µM, the GI50 (MDA-MB-231 breast) was 10.1 µM and the TGI (MDA-MB-231 breast) was 24.9 µM.
For `CCN(CC)CCOc1ccc(Cc2ccccc2)cc1`, the GI50 (BT-549 breast) was 31.4 µM, the TGI (BT-549 breast) was greater than 100 µM and the GI50 (DU-145 prostate) was 32.7 µM. For the same compound, the TGI (DU-145 prostate) was greater than 100 µM, the GI50 (MDA-MB-231 breast) was 28.2 µM and the TGI (MDA-MB-231 breast) was greater than 100 µM.
`CN[C@H]1CC[C@]23C[C@]24CC[C@]2(C)[C@@H]([C@H](C)N(C)C)CC[C@@]2(C)[C@@H]4CC[C@H]3C1(C)C` showed a TGI (BT-549 breast) of 31.9 µM, a TGI (DU-145 prostate) of 28.4 µM and a TGI (MDA-MB-231 breast) of 38.2 µM. For the same compound, the TGI (MDA-N) was 29.2 µM.
